Test systems include MDA-MB-435; HOP-62 NSCLC; SF-268 CNS; IGROV1 ovarian; CCRF-CEM leukemia; K-562 leukemia; SF-295 CNS; SK-MEL-28 melanoma; HT29 colon; NCI-H522 lung.
Holding throughout (assay): inhibition of tumour cell growth, NCI panel, 48 h

Structures are written as SMILES.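 96-well plates; 48 h exposure; 5 concentrations. Endpoints by linear interpolation between flanking doses. Not reached: highest tested concentration assigned. GI50 marks 50% less growth. At the TGI there is no net growth.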

Turning to `O=C1C(Nc2ccc(Cl)cc2)=C(I)C(=O)c2ncccc21`, the GI50 with MDA-MB-435 was 1.43 µM; in the assay with HOP-62 NSCLC, 1.79 µM; in the assay on SF-268 CNS it was 1.37 µM; in the assay on IGROV1 ovarian it was 0.359 µM; in the assay with CCRF-CEM leukemia it was 0.784 µM; in the assay with K-562 leukemia it was 0.278 µM. Further, the results for the GI50 with SF-295 CNS and in the assay on SK-MEL-28 melanoma were 6.79 µM and 1.64 µM, respectively. Also, the TGI was found to be 2.9 µM in the assay on MDA-MB-435; 4.74 µM in the assay on HOP-62 NSCLC; 3.23 µM in the assay with SF-268 CNS; 1.41 µM with IGROV1 ovarian; 5.88 µM in the assay on CCRF-CEM leukemia; 10.4 µM with K-562 leukemia. In addition, the TGI was found to be 19.6 µM in the assay on SF-295 CNS and 3.02 µM with SK-MEL-28 melanoma.

As for `Cc1cc([N+](=O)[O-])c(NS(=O)(=O)c2cccc(C(=O)O)c2)cc1-c1cccnc1`, the GI50 in the assay with MDA-MB-435, in the assay on HOP-62 NSCLC, in the assay with SF-268 CNS, with IGROV1 ovarian, with CCRF-CEM leukemia and with K-562 leukemia was more than 100 µM throughout. Moreover, the GI50 with SF-295 CNS, in the assay on SK-MEL-28 melanoma and with HT29 colon was more than 100 µM throughout. The TGI with MDA-MB-435, in the assay with HOP-62 NSCLC, in the assay with SF-268 CNS, with IGROV1 ovarian, in the assay with CCRF-CEM leukemia and in the assay on K-562 leukemia was more than 100 µM each time. In addition, the TGI with SF-295 CNS, in the assay with SK-MEL-28 melanoma and in the assay with HT29 colon was more than 100 µM each time.

For the molecule `NCCCC[C@@H]1NC(=O)[C@H]2CCCN2C(=O)[C@H](Cc2ccccc2)CNC(=O)[C@H](Cc2ccccc2)NC1=O`, the GI50 in the assay with NCI-H522 lung was more than 37.5 µM; with MDA-MB-435 it was more than 37.5 µM; with HOP-62 NSCLC, more than 37.5 µM; in the assay with SF-268 CNS, more than 37.5 µM; in the assay with IGROV1 ovarian, more than 37.5 µM; with K-562 leukemia, more than 17.9 µM. The GI50 with SF-295 CNS, with SK-MEL-28 melanoma and with HT29 colon was more than 37.5 µM in each case. For the same molecule, the TGI with NCI-H522 lung, with MDA-MB-435, in the assay on HOP-62 NSCLC, in the assay with SF-268 CNS, in the assay with IGROV1 ovarian and in the assay with K-562 leukemia was more than 37.5 µM throughout. The TGI in the assay with SF-295 CNS, in the assay on SK-MEL-28 melanoma and with HT29 colon was more than 37.5 µM throughout.

As for `Nc1ncnc2c1N=C(c1ccc3c(c1)OCO3)CC(c1ccc([N+](=O)[O-])cc1)N2` (configuration not stated), the GI50 with NCI-H522 lung was 6.78 µM; in the assay with MDA-MB-435 it was 62 µM; with HOP-62 NSCLC it was 67.6 µM; in the assay with SF-268 CNS, 42 µM; in the assay with IGROV1 ovarian, 0.0684 µM; in the assay on K-562 leukemia it was 22.5 µM. Besides, the GI50 with SF-295 CNS is 64.2 µM; with SK-MEL-28 melanoma it was more than 100 µM; with HT29 colon it was 63 µM. For the same molecule, the TGI with NCI-H522 lung was more than 100 µM; with MDA-MB-435 it was more than 100 µM; in the assay with HOP-62 NSCLC, more than 100 µM; in the assay on SF-268 CNS, more than 100 µM; with IGROV1 ovarian, 3.24 µM; in the assay with K-562 leukemia, more than 100 µM. The TGI with SF-295 CNS, in the assay on SK-MEL-28 melanoma and in the assay with HT29 colon was more than 100 µM in each case.

Regarding `CCCCOC(=O)N1CCN(/[N+]([O-])=N/Oc2ccc([N+](=O)[O-])cc2[N+](=O)[O-])CC1`, the GI50 in the assay on NCI-H522 lung is 2.91 µM; in the assay on MDA-MB-435 it was 4.6 µM; in the assay with HOP-62 NSCLC, 6.28 µM; with SF-268 CNS it was 6.42 µM; in the assay with IGROV1 ovarian it was 2.17 µM; in the assay with K-562 leukemia, 5.97 µM. Moreover, the results for the GI50 in the assay on SF-295 CNS, with SK-MEL-28 melanoma and in the assay on HT29 colon were 28.6 µM, 13.7 µM and 4.67 µM, respectively. Further, the TGI in the assay on NCI-H522 lung was more than 100 µM; in the assay with MDA-MB-435, 16.4 µM; in the assay on HOP-62 NSCLC, 23.2 µM; in the assay with SF-268 CNS, 25.4 µM; in the assay on IGROV1 ovarian it was 6.44 µM; in the assay with K-562 leukemia it was more than 100 µM. For the same molecule, the TGI with SF-295 CNS is more than 100 µM; in the assay with SK-MEL-28 melanoma, 35.7 µM; with HT29 colon it was more than 100 µM.

As for `CCOC(=O)CCC(NC(=O)OCc1ccccc1)C(=O)NC(CCC(=O)OCC)C(=O)NC(CCC(=O)OCC)C(=O)NC(CCC(=O)OCC)C(=O)NC(CCC(=O)OCC)C(=O)NC(CCC(=O)OCC)C(=O)NC(CCC(=O)OCC)C(=O)OCC` (configuration not stated), the TGI in the assay on NCI-H522 lung, in the assay on MDA-MB-435, in the assay on HOP-62 NSCLC, in the assay on SF-268 CNS, in the assay on CCRF-CEM leukemia and in the assay with K-562 leukemia was more than 100 µM in each case. Further, the TGI with SK-MEL-28 melanoma and with HT29 colon was more than 100 µM in each case.

On to `O=C1c2cc3c(cc2[C@@H]2[C@H]1c1ccc([N+](=O)[O-])cc1C(=O)N2CCCBr)OCO3`, for which the GI50 in the assay on NCI-H522 lung was less than 0.0266 µM; in the assay on MDA-MB-435, less than 0.01 µM; in the assay on HOP-62 NSCLC it was less than 0.01 µM; in the assay with SF-268 CNS, less than 0.01 µM; in the assay with IGROV1 ovarian, less than 0.0136 µM; in the assay on K-562 leukemia, less than 0.0121 µM. Moreover, the GI50 in the assay with SF-295 CNS, in the assay with SK-MEL-28 melanoma and with HT29 colon was less than 0.01 µM in each case. Besides, the TGI was 0.219 µM with MDA-MB-435; less than 0.0486 µM in the assay with HOP-62 NSCLC; 0.394 µM with SF-268 CNS; 0.444 µM with K-562 leukemia; more than 100 µM in the assay with SK-MEL-28 melanoma; more than 100 µM in the assay on HT29 colon.

Consider `COc1ccc2c(CN3CCCC[C@H]3C(=O)O)cc3cc4c(cc3c2c1)OCO4`, for which the GI50 in the assay with MDA-MB-435 was 1.05 µM; with HOP-62 NSCLC, 4.33 µM; with SF-268 CNS, 0.175 µM; with CCRF-CEM leukemia, 2.94 µM; with K-562 leukemia, 1.5 µM; with SF-295 CNS, 0.622 µM. Moreover, the GI50 is 0.7 µM with SK-MEL-28 melanoma and 0.374 µM with HT29 colon. Also, the TGI is 4.09 µM in the assay with MDA-MB-435; more than 100 µM in the assay on HOP-62 NSCLC; 1.39 µM in the assay with SF-268 CNS; 13.5 µM with CCRF-CEM leukemia; 11.1 µM with K-562 leukemia; 3.53 µM in the assay with SF-295 CNS. Further, the TGI came to 2.33 µM in the assay on SK-MEL-28 melanoma and 1.85 µM with HT29 colon.

For `CC(C)CCCC(C)[C@H]1CCC2[C@@H]3CCC4Cc5nc6c(nc5C[C@]4(C)C3CC[C@@]21C)CC1CC[C@@H]2C(CC[C@@]3(C)C2CC[C@@H]3C(C)CCCC(C)C)[C@@]1(C)C6` (some centres not stated), the TGI in the assay with MDA-MB-435, in the assay on HOP-62 NSCLC, in the assay with SF-268 CNS, with IGROV1 ovarian, in the assay on CCRF-CEM leukemia and with K-562 leukemia was more than 100 µM in each case. Also, the TGI with SF-295 CNS, with SK-MEL-28 melanoma and in the assay with HT29 colon was more than 100 µM in each case.

Consider `CC(=O)[CH-]C(=O)c1ccccc1.CC(=O)[CH-]C(=O)c1ccccc1.CC[O-].CC[O-].[Hf+4]`, for which the GI50 in the assay with NCI-H522 lung was more than 100 µM; in the assay with HOP-62 NSCLC, more than 100 µM; with SF-268 CNS it was more than 100 µM; in the assay on IGROV1 ovarian it was more than 100 µM; in the assay on CCRF-CEM leukemia, 69.1 µM; with K-562 leukemia it was more than 100 µM. Moreover, the GI50 in the assay on SF-295 CNS, with SK-MEL-28 melanoma and in the assay with HT29 colon was more than 100 µM each time. For the same molecule, the TGI in the assay on NCI-H522 lung, with HOP-62 NSCLC, with SF-268 CNS, with IGROV1 ovarian, in the assay on CCRF-CEM leukemia and with K-562 leukemia was more than 100 µM in each case. The TGI in the assay with SF-295 CNS, with SK-MEL-28 melanoma and with HT29 colon was more than 100 µM throughout.

`O=S(=O)(/C=C/c1ccc(F)cc1)Cc1ccc(CS(=O)(=O)/C=C/c2ccc(F)cc2)cc1`: the TGI with NCI-H522 lung, in the assay on HOP-62 NSCLC, in the assay on SF-268 CNS, in the assay on IGROV1 ovarian, in the assay on CCRF-CEM leukemia and in the assay on K-562 leukemia was more than 100 µM in each case. Besides, the TGI with SF-295 CNS, with SK-MEL-28 melanoma and with HT29 colon was more than 100 µM throughout.

Take `COC(C(=O)NN)c1ccccc1` (configuration not stated): the TGI in the assay with NCI-H522 lung, with MDA-MB-435, in the assay on HOP-62 NSCLC, in the assay on SF-268 CNS, with IGROV1 ovarian and in the assay on K-562 leukemia was more than 100 µM throughout. For the same molecule, the TGI in the assay with SF-295 CNS, with SK-MEL-28 melanoma and in the assay with HT29 colon was more than 100 µM in each case.

In the case of `COc1ccc(/C=C/c2cc(OC)c(OC)c(OC)c2)cc1`, the GI50 is 14.1 µM with NCI-H522 lung, 34 µM with K-562 leukemia and 21.9 µM with SF-295 CNS. Besides, the TGI in the assay with NCI-H522 lung was 40.9 µM; in the assay on HOP-62 NSCLC, 60.1 µM; in the assay with SF-268 CNS it was more than 85.3 µM; in the assay on IGROV1 ovarian, more than 100 µM; in the assay with CCRF-CEM leukemia, more than 100 µM; in the assay on K-562 leukemia, more than 100 µM. The values for the TGI with SF-295 CNS, in the assay on SK-MEL-28 melanoma and in the assay with HT29 colon were 61.3 µM, 96.8 µM and more than 38 µM, respectively.

As for `CSc1nnc(CCC(=O)Nc2c(C)cccc2C)o1`, the TGI in the assay on NCI-H522 lung, with HOP-62 NSCLC, with SF-268 CNS, with IGROV1 ovarian, in the assay with CCRF-CEM leukemia and with K-562 leukemia was more than 100 µM throughout. In addition, the TGI in the assay on SF-295 CNS, in the assay with SK-MEL-28 melanoma and in the assay with HT29 colon was more than 100 µM in each case.

For `N/N=C(/C(=O)Nc1cccc(Cl)c1)C(C(=O)c1ccc(O)cc1O)C1OC(=O)c2ccccc21` (configuration not stated), the TGI in the assay with NCI-H522 lung, in the assay on HOP-62 NSCLC, in the assay on SF-268 CNS, with IGROV1 ovarian, with CCRF-CEM leukemia and in the assay with K-562 leukemia was more than 100 µM in each case. In addition, the TGI with SF-295 CNS, with SK-MEL-28 melanoma and with HT29 colon was more than 100 µM in each case.
